Experimental data taken from US8802597B2, “Herbicidal pyrimidines” (E I du Pont de Nemours and Company, priority 2003, dated 2014).
Where two headings read alike, the source gives them in different places.

Legend:
[1] = test system: corn (Zea mays); test: Test C pre/postemergence; format: in vivo; conditions: Zea mays; for Corn plant response rating (crop injury, 0 = no effect, 100 = complete kill) at 31 g/ha: 31 g ai/ha; for Corn plant response rating (crop injury, 0 = no effect, 100 = complete kill) at 62 g/ha: 62 g ai/ha; for Corn plant response rating (crop injury, 0 = no effect, 100 = complete kill) at 125 g/ha: 125 g ai/ha; for Corn plant response rating (crop injury, 0 = no effect, 100 = complete kill) at 250 g/ha: 250 g ai/ha; for Corn plant response rating (crop injury, 0 = no effect, 100 = complete kill) at 500 g/ha: 500 g ai/ha
Method in brief: (§1)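 Applications: preemergence onto seeded soil and postemergence onto 1- to 4-leaf seedlings, compound carried in non-phytotoxic solvent plus surfactant. Kept in greenhouse 12 to 14 days. Scored visually relative to untreated controls, 0 (no effect) to 100 (complete control).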

[2] = test system: woolly cupgrass (Eriochloa villosa); test: Test C pre/postemergence; format: in vivo; conditions: Eriochloa villosa; for pest or weed control at 31 g/ha: 31 g ai/ha; for pest or weed control at 62 g/ha: 62 g ai/ha; for pest or weed control at 125 g/ha: 125 g ai/ha; for pest or weed control at 250 g/ha: 250 g ai/ha; for pest or weed control at 500 g/ha: 500 g ai/ha
Method in brief: as §1

[3] = test system: morningglory (Ipomoea coccinea); test: Test C pre/postemergence; format: in vivo; conditions: Ipomoea; for pest or weed control at 31 g/ha: 31 g ai/ha; for pest or weed control at 62 g/ha: 62 g ai/ha; for pest or weed control at 125 g/ha: 125 g ai/ha; for pest or weed control at 250 g/ha: 250 g ai/ha; for pest or weed control at 500 g/ha: 500 g ai/ha
Method in brief: as §1

[4] = test system: junglerice (Echinochloa colona); test: Test E flooded paddy water application; format: in vivo; conditions: Flood, 21 days, scale 0 to 100 (0 no effect, 100 complete control)
Method in brief: (§2)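 Greenhouse pots of Tama silt loam with weeds and rice at 2.0–2.5-leaf stage, flooded to 3 cm; compounds applied directly into paddy water, depth maintained. Visual rating versus untreated controls after 21 days, 0 (no effect) to 100 (complete control); 29.5/26.7 °C, 16-h photoperiod.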

[5] = test system: water seeded rice seedlings (Oryza sativa cv. ‘Japonica-M202’); test: Test E flooded paddy water application; format: in vivo; conditions: Flood, 21 days, scale 0 to 100 (0 no effect, 100 complete control)
Method in brief: as §2

[6] = test system: smallflower umbrella sedge (Cyperus difformis); test: Test E flooded paddy water application; format: in vivo; conditions: Flood, 21 days, scale 0 to 100 (0 no effect, 100 complete control)
Method in brief: as §2

[7] = test system: ducksalad (Heteranthera limosa); test: Test E flooded paddy water application; format: in vivo; conditions: Flood, 21 days, scale 0 to 100 (0 no effect, 100 complete control)
Method in brief: as §2

[8] = post-emergence, Postemergence, read-out: Plant response rating (scale of 0 to 100), Corn
[9] = post-emergence, Postemergence, scale 0 to 100 (0 no effect, 100 complete control), read-out: Corn plant response rating
[10] = post-emergence, Postemergence, scale 0 to 100
[11] = pre-emergence, Preemergence, scale 0 to 100, 0 no effect, 100 complete control, read-out: Plant response rating, Corn
[12] = pre-emergence, Preemergence, scale 0 to 100, read-out: Plant response rating, Corn
[13] = pre-emergence, Preemergence, scale 0 to 100
[14] = post-emergence, Postemergence, read-out: Plant response rating (scale of 0 to 100), Cupgrass, Woolly
[15] = post-emergence, Postemergence, scale 0 to 100 (0 no effect, 100 complete control), read-out: Cupgrass, Woolly plant response rating
[16] = post-emergence, Postemergence, scale 0 to 100, read-out: Plant response rating, Cupgrass, Woolly
[17] = pre-emergence, Preemergence, scale 0 to 100, 0 no effect, 100 complete control, read-out: Plant response rating, Cupgrass, Woolly
[18] = pre-emergence, Preemergence, scale 0 to 100, read-out: Plant response rating, Cupgrass, Woolly
[19] = post-emergence, Postemergence, read-out: Plant response rating (scale of 0 to 100), Morningglory
[20] = post-emergence, Postemergence, scale 0 to 100 (0 no effect, 100 complete control), read-out: Morningglory plant response rating
[21] = post-emergence, Postemergence, scale 0 to 100, read-out: Plant response rating, Morningglory
[22] = pre-emergence, Preemergence, scale 0 to 100, 0 no effect, 100 complete control, read-out: Plant response rating, Morningglory
[23] = pre-emergence, Preemergence, scale 0 to 100, read-out: Plant response rating, Morningglory

Compound | melting point [°C] | Corn plant response rating (crop injury, 0 = no effect, 100 = complete kill) at 31 g/ha [1, 8] [%] | Corn plant response rating (crop injury, 0 = no effect, 100 = complete kill) at 62 g/ha [1, 9] [%] | Corn plant response rating (crop injury, 0 = no effect, 100 = complete kill) at 125 g/ha [1, 9] [%] | Corn plant response rating (crop injury, 0 = no effect, 100 = complete kill) at 250 g/ha [1, 10] [%] | Corn plant response rating (crop injury, 0 = no effect, 100 = complete kill) at 31 g/ha [1, 11] [%] | Corn plant response rating (crop injury, 0 = no effect, 100 = complete kill) at 62 g/ha [1, 11] [%] | Corn plant response rating (crop injury, 0 = no effect, 100 = complete kill) at 125 g/ha [1, 12] [%] | Corn plant response rating (crop injury, 0 = no effect, 100 = complete kill) at 250 g/ha [1, 13] [%] | pest or weed control at 31 g/ha [2, 14] [%] | pest or weed control at 62 g/ha [2, 15] [%] | pest or weed control at 125 g/ha [2, 15] [%] | pest or weed control at 250 g/ha [2, 16] [%] | pest or weed control at 31 g/ha [2, 17] [%] | pest or weed control at 62 g/ha [2, 17] [%] | pest or weed control at 125 g/ha [2, 18] [%] | pest or weed control at 125 g/ha [3, 20] [%] | pest or weed control at 250 g/ha [3, 21] [%] | pest or weed control at 62 g/ha [3, 22] [%] | pest or weed control at 125 g/ha [3, 23] [%] | other results
COC(=O)c1nc(C(C)C)nc(N)c1Br [Compound 3] | 107 to 109 | 0 | 0 | 0 | 0 | 0 | 0 | 0 | 0 | 0 | 0 | 0 | 0 | 0 | 0 | 0 | 65 | 75 | 0 | 20 | pest or weed control at 250 g/ha [2, 18]: 0%; pest or weed control at 31 g/ha [3, 19]: 45%; pest or weed control at 62 g/ha [3, 20]: 60%; pest or weed control at 31 g/ha [3, 22]: 0%; pest or weed control at 250 g/ha [3, 23]: 35%
COC(=O)c1nc(C2CC2)nc(N)c1I [Compound 7] | 145 to 146 |  | 0 | 0 | 0 |  |  |  |  |  | 0 | 0 | 0 |  |  |  | 50 | 55 |  |  | Corn plant response rating (crop injury, 0 = no effect, 100 = complete kill) at 500 g/ha [1, 10]: 0%; pest or weed control at 500 g/ha [2, 16]: 20%; pest or weed control at 500 g/ha [3, 21]: 65%
Nc1nc(C2CC2)nc(C(=O)O)c1Br [Compound 8] | 160 to 162 |  | 0 | 20 | 70 |  | 0 | 0 | 10 |  | 30 | 60 | 75 |  | 0 | 65 | 95 | 100 | 20 | 100 | Corn plant response rating (crop injury, 0 = no effect, 100 = complete kill) at 500 g/ha [1, 10]: 90%; Corn plant response rating (crop injury, 0 = no effect, 100 = complete kill) at 500 g/ha [1, 13]: 75%; pest or weed control at 500 g/ha [2, 16]: 85%; pest or weed control at 250 g/ha [2, 18]: 100%; pest or weed control at 500 g/ha [2, 18]: 100%; pest or weed control at 62 g/ha [3, 20]: 95%; pest or weed control at 500 g/ha [3, 21]: 100%; pest or weed control at 250 g/ha [3, 23]: 100%; pest or weed control at 500 g/ha [3, 23]: 100%

The next lines start with results.

melting point [°C] | Compound | Corn plant response rating (crop injury, 0 = no effect, 100 = complete kill) at 31 g/ha [1, 8] [%] | Corn plant response rating (crop injury, 0 = no effect, 100 = complete kill) at 62 g/ha [1, 9] [%] | Corn plant response rating (crop injury, 0 = no effect, 100 = complete kill) at 125 g/ha [1, 9] [%] | Corn plant response rating (crop injury, 0 = no effect, 100 = complete kill) at 250 g/ha [1, 10] [%] | Corn plant response rating (crop injury, 0 = no effect, 100 = complete kill) at 31 g/ha [1, 11] [%] | Corn plant response rating (crop injury, 0 = no effect, 100 = complete kill) at 62 g/ha [1, 11] [%] | Corn plant response rating (crop injury, 0 = no effect, 100 = complete kill) at 125 g/ha [1, 12] [%] | Corn plant response rating (crop injury, 0 = no effect, 100 = complete kill) at 250 g/ha [1, 13] [%] | pest or weed control at 31 g/ha [2, 14] [%] | pest or weed control at 62 g/ha [2, 15] [%] | pest or weed control at 125 g/ha [2, 15] [%] | pest or weed control at 250 g/ha [2, 16] [%] | pest or weed control at 31 g/ha [2, 17] [%] | pest or weed control at 62 g/ha [2, 17] [%] | pest or weed control at 125 g/ha [2, 18] [%] | pest or weed control at 125 g/ha [3, 20] [%] | pest or weed control at 250 g/ha [3, 21] [%] | pest or weed control at 62 g/ha [3, 22] [%] | pest or weed control at 125 g/ha [3, 23] [%] | other results
215 to 218 | COC(=O)c1nc(-c2ccc(Cl)cc2)nc(N)c1Cl [Compound 58, methyl 6-amino-5-chloro-2-(4-chlorophenyl)-4-pyrimidinecarboxylate] |  |  |  |  |  |  |  |  |  |  |  |  |  |  |  |  |  |  |  | Junglerice plant response rating ([4]; 32 g ai/ha): 0; Junglerice plant response rating ([4]; 64 g ai/ha): 0; Junglerice plant response rating ([4]; 125 g ai/ha): 0; Junglerice plant response rating ([4]; 250 g ai/ha): 0; Plant response rating, Junglerice ([4]; 16 g ai/ha): 0; Rice, Water Seeded plant response rating ([5]; 32 g ai/ha): 0; Rice, Water Seeded plant response rating ([5]; 64 g ai/ha): 0; Rice, Water Seeded plant response rating ([5]; 125 g ai/ha): 0; Rice, Water Seeded plant response rating ([5]; 250 g ai/ha): 20; Plant response rating, Rice, Water Seeded ([5]; 16 g ai/ha): 0; Sedge, Umbrella plant response rating ([6]; 32 g ai/ha): 95; Sedge, Umbrella plant response rating ([6]; 64 g ai/ha): 95; Sedge, Umbrella plant response rating ([6]; 125 g ai/ha): 95; Sedge, Umbrella plant response rating ([6]; 250 g ai/ha): 100; Plant response rating, Sedge, Umbrella ([6]; 16 g ai/ha): 65; Ducksalad plant response rating ([7]; 32 g ai/ha): 100; Ducksalad plant response rating ([7]; 64 g ai/ha): 100; Ducksalad plant response rating ([7]; 125 g ai/ha): 100; Ducksalad plant response rating ([7]; 250 g ai/ha): 100; Plant response rating, Ducksalad ([7]; 16 g ai/ha): 100
126 to 128 | Nc1nc(C2CC2)nc(C(=O)OCc2ccccc2)c1Cl [Compound 78, phenylmethyl 6-amino-5-chloro-2-cyclopropyl-4-pyrimidinecarboxylate] | 40 |  | 40 | 40 | 0 | 20 | 40 |  | 50 |  |  | 90 | 0 | 0 | 10 | 100 | 100 | 85 | 100 | Corn plant response rating (crop injury, 0 = no effect, 100 = complete kill) at 62 g/ha [1, 8]: 40%; Corn plant response rating (crop injury, 0 = no effect, 100 = complete kill) at 16 g/ha ([1]; pre-emergence, Preemergence, 16 g ai/ha, scale 0 to 100, 0 no effect, 100 complete control, read-out: Plant response rating, Corn): 0%; pest or weed control at 62 g/ha [2, 14]: 55%; pest or weed control at 16 g/ha ([2]; pre-emergence, Preemergence, 16 g ai/ha, scale 0 to 100, 0 no effect, 100 complete control, read-out: Plant response rating, Cupgrass, Woolly): 0%; pest or weed control at 31 g/ha [3, 19]: 90%; pest or weed control at 62 g/ha [3, 19]: 90%; pest or weed control at 16 g/ha ([3]; pre-emergence, Preemergence, 16 g ai/ha, scale 0 to 100, 0 no effect, 100 complete control, read-out: Plant response rating, Morningglory): 0%; pest or weed control at 31 g/ha [3, 22]: 70%
> 300 | Nc1nc(C2CC2)nc(C(=O)[O-])c1Br.[Na+] [Compound 113, 6-amino-5-bromo-2-cyclopropyl-4-pyrimidinecarboxylic acid monosodium salt] |  |  |  |  |  |  |  |  |  |  |  |  |  |  |  |  |  |  |  | 
